Assay results from the supplement of paper PMC12076712.

Legend:
Test in all cases: pIC50, kinobeads binding competition
ABL2 = ABL2 (UniProt P42684)
Method in brief: (§1)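 Either living Jurkat cells (60 min at 37 °C, then lysis) or lysates (60 min at 4 °C) were treated with nine compound concentrations from a top of 30 μM, in 1:4 steps for cells and 1:5 steps for lysates. The lysates were from Jurkat cells or a 1:1:1:1 mix of HEK293, K-562, HepG2 and placenta. Kinobeads-bound proteins were digested and quantified by TMT10 LC-MS/MS. pIC50 was calculated by logistic dose-response fitting (R drc package) of fold changes relative to vehicle, in biological duplicates.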

CAMKK2 = CAMKK2 (UniProt Q96RR4)
Sequence of CAMKK2 (Q96RR4 whole entry, looked up): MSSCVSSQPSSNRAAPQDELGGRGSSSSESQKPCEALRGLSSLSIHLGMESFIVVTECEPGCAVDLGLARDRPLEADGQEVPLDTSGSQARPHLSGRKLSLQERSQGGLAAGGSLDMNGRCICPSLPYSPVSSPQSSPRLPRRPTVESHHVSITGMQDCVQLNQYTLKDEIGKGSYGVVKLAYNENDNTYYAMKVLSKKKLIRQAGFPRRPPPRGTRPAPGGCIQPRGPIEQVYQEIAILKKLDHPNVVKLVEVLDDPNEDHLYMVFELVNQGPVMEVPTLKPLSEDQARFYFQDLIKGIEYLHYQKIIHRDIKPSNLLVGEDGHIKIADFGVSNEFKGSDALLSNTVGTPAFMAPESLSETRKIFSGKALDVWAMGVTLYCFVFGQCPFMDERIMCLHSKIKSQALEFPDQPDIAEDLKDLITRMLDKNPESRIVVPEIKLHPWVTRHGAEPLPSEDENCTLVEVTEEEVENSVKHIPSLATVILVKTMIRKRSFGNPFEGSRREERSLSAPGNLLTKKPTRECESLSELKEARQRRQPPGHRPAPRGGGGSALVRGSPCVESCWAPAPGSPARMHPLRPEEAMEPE
Method in brief: as §1

CAMKK1 = CAMKK1 (UniProt Q8N5S9)
Sequence of CAMKK1 (Q8N5S9 whole entry, looked up): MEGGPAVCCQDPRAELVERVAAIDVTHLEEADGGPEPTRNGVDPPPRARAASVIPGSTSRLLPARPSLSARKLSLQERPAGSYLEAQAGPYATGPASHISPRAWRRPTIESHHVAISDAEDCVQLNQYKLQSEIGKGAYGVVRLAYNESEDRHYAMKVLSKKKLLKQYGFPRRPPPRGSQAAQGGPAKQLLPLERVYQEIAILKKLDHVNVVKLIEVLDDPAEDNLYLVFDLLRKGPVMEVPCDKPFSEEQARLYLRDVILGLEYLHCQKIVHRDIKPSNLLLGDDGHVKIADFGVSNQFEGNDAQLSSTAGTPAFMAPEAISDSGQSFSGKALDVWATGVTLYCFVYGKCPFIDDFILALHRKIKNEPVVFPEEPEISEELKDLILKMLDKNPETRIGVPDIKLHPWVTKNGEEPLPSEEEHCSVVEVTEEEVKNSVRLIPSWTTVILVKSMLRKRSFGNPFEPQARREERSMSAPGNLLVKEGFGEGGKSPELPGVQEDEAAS
Method in brief: as §1

FGFR4 = FGFR4 (UniProt P22455); details: cell material: Lysate mix
Sequence of FGFR4 (P22455 whole entry, looked up): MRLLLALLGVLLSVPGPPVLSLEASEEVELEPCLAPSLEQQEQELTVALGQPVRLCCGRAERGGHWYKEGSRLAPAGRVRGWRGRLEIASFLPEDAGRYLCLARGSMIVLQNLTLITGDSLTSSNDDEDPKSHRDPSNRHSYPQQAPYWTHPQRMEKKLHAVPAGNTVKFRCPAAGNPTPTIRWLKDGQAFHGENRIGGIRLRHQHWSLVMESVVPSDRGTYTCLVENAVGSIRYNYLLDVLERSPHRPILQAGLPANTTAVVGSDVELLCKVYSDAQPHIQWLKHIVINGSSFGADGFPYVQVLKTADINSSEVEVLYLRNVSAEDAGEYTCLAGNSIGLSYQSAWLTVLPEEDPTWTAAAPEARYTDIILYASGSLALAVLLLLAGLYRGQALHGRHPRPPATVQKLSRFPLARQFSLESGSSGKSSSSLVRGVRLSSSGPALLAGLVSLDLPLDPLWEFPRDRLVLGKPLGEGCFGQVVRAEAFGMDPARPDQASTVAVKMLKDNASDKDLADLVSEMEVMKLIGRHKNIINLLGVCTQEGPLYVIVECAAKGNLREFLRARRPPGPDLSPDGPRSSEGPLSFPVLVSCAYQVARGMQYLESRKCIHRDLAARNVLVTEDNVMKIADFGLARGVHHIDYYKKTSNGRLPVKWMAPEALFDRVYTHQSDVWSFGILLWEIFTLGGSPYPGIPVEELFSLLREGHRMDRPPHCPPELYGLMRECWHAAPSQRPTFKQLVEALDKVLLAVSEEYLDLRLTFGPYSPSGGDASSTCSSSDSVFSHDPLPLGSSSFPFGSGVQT
Method in brief: as §1

PIM2 = PIM2 (UniProt Q9P1W9)
Sequence of PIM2 (Q9P1W9 whole entry, looked up): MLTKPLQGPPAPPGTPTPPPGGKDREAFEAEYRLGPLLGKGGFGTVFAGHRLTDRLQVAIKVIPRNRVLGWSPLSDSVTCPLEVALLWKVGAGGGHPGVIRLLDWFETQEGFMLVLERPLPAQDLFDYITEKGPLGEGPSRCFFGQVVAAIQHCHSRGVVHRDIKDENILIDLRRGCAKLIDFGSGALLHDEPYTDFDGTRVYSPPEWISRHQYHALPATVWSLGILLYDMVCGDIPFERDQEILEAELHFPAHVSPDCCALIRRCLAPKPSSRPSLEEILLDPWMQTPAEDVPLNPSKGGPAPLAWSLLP
Method in brief: as §1

STK33 = STK33 (UniProt Q9BYT3)
Sequence of STK33 (Q9BYT3 whole entry, looked up): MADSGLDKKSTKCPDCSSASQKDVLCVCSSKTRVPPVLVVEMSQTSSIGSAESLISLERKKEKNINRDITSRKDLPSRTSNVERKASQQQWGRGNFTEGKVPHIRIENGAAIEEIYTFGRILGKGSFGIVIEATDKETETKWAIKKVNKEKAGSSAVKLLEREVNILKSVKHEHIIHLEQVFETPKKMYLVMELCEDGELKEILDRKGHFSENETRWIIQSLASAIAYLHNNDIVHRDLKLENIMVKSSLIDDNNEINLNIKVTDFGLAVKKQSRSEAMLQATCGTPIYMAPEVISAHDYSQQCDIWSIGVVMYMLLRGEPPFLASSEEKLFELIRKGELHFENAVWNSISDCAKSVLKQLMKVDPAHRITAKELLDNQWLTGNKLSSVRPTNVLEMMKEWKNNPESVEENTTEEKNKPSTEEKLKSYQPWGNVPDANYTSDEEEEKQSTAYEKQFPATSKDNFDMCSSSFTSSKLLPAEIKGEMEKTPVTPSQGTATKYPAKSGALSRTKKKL
Method in brief: as §1

UniProt Q00536 = molecular target: UniProt Q00536
Sequence of UniProt Q00536 (Q00536 whole entry): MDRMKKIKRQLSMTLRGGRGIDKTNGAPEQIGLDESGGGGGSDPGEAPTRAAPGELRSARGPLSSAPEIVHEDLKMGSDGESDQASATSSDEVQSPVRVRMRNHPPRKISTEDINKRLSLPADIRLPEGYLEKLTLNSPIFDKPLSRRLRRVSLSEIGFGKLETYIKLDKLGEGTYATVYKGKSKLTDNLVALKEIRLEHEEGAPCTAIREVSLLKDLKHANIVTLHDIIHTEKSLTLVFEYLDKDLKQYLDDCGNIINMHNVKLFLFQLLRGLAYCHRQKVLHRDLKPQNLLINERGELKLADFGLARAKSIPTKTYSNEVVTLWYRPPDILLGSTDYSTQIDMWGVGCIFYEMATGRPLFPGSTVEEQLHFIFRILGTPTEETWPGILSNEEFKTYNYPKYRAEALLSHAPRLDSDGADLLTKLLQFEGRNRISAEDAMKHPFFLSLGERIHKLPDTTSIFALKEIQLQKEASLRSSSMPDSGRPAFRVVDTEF
Method in brief: as §1

BMPR2 = molecular target: T1, BMPR2 (UniProt Q13873)
T1 sequence (whole entry): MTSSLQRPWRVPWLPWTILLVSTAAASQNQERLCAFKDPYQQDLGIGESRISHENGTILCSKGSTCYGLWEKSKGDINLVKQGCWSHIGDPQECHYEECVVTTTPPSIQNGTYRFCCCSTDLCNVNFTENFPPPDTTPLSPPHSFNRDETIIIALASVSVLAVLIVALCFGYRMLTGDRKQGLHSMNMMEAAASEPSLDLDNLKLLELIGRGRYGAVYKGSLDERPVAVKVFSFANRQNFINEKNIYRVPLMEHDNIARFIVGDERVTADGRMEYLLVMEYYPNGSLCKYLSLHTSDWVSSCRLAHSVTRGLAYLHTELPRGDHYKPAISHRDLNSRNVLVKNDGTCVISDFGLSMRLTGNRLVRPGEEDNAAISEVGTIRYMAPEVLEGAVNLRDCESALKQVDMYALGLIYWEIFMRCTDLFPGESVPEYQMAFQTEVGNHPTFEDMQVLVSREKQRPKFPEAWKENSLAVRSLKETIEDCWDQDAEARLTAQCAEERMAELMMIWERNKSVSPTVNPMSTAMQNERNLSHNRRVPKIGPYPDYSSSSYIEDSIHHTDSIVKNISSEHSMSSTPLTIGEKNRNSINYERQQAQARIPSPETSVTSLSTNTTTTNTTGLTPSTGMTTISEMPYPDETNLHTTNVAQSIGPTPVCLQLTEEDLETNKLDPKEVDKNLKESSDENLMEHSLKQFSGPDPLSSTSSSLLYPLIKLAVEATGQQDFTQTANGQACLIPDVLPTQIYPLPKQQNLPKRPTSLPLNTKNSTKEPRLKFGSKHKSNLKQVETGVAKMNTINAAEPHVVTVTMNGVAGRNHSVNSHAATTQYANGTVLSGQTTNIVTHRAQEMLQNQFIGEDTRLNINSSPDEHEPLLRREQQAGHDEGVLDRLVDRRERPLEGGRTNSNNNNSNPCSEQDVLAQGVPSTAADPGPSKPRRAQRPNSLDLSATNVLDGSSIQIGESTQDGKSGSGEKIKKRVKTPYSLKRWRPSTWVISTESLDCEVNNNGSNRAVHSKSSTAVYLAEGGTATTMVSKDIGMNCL
Method in brief: as §1

BMX = molecular target: T2, BMX (UniProt P51813); details: cell material: Lysate mix
T2 sequence (whole entry): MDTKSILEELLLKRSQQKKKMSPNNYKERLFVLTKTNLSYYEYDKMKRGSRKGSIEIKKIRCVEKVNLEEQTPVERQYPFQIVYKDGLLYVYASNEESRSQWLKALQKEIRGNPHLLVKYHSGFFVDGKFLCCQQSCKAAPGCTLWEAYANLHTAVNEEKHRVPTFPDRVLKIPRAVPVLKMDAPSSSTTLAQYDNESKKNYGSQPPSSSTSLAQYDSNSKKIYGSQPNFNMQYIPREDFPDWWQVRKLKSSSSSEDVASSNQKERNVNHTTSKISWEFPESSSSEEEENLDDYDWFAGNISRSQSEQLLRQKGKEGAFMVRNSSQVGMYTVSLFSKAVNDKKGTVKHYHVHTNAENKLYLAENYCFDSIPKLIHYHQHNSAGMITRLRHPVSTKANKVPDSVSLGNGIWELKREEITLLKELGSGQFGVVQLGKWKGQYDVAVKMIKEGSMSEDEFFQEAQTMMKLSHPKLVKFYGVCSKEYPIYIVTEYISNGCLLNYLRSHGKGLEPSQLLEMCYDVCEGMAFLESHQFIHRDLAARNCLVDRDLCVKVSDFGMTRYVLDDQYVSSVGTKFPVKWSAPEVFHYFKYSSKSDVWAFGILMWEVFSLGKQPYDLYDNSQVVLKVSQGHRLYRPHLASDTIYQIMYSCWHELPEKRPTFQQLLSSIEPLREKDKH
Method in brief: as §1

UniProt P35916 = details: cell material: Lysate mix
Method in brief: as §1

CLK1 = CLK1 (UniProt P49759)
Sequence of CLK1 (P49759 whole entry, looked up): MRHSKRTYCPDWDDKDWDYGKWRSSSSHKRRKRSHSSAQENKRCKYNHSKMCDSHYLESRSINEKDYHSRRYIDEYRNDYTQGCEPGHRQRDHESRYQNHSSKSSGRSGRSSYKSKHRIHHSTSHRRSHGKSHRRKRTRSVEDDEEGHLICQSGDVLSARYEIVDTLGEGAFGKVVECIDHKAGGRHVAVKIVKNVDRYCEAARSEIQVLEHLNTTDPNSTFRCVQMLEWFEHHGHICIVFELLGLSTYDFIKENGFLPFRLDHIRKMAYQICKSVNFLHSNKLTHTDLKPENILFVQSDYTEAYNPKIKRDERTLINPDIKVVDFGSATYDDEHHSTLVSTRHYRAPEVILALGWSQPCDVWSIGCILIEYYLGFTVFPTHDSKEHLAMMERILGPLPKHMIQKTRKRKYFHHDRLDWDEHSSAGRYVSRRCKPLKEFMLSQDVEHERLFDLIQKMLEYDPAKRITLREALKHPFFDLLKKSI
Method in brief: as §1

NLK = molecular target: T3, NLK (UniProt Q9UBE8)
T3 sequence (whole entry): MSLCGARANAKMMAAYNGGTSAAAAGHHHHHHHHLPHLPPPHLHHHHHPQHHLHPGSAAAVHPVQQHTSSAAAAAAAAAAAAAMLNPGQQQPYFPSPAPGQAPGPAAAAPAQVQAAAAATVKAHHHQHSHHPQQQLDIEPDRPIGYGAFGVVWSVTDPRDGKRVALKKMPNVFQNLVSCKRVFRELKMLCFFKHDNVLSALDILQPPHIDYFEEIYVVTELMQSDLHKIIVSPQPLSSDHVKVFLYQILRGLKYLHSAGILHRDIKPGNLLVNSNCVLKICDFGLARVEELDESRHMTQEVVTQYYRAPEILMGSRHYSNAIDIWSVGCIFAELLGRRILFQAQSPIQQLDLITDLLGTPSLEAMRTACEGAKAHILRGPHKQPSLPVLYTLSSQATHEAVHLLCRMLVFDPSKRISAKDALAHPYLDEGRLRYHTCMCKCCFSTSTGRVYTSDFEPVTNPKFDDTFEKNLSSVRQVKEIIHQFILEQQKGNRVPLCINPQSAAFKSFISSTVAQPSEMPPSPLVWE
Method in brief: as §1

Sequence of ABL2 (P42684 whole entry): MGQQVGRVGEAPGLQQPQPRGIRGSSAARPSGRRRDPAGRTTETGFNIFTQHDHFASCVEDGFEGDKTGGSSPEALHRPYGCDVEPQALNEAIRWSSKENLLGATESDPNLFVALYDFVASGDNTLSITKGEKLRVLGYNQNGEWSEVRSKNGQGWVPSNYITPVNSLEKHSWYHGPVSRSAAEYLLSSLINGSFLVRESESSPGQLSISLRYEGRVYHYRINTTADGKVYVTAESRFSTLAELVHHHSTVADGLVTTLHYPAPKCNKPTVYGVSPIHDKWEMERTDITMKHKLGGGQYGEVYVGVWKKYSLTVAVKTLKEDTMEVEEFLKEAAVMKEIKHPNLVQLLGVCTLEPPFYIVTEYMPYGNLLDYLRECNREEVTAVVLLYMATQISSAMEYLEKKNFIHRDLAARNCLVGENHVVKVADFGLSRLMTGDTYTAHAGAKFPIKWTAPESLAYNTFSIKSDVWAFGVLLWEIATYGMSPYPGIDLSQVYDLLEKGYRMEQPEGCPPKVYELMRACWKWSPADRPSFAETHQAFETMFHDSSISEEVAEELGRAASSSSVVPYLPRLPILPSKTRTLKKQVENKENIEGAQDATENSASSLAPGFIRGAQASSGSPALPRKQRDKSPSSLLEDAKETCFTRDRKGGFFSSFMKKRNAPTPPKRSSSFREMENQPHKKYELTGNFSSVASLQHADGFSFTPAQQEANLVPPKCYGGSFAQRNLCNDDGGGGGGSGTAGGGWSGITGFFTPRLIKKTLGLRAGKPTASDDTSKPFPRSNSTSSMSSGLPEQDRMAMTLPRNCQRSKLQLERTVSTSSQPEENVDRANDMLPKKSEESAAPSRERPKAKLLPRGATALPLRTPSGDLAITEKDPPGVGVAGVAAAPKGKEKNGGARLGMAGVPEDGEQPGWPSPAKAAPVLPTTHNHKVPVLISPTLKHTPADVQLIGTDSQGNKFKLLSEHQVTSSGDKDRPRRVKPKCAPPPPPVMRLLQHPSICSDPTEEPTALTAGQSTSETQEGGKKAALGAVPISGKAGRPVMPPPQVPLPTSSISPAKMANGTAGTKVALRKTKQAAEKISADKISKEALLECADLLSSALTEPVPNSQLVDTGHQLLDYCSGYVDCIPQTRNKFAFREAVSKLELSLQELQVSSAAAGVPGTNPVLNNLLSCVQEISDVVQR

| Structure (SMILES) | pIC50 (ABL2; cell material: Jurkat cells) | pIC50 (ABL2; cell material: Jurkat lysate) | pIC50 (ABL2; cell material: Lysate mix) | pIC50 (CAMKK2; cell material: Jurkat cells) | pIC50 (CAMKK2; cell material: Jurkat lysate) | pIC50 (CAMKK2; cell material: Lysate mix) | pIC50 (CAMKK1; cell material: Jurkat cells) | pIC50 (CAMKK1; cell material: Jurkat lysate) | pIC50 (CAMKK1; cell material: Lysate mix) | pIC50 (FGFR4) | pIC50 (PIM2; cell material: Jurkat lysate) | pIC50 (PIM2; cell material: Lysate mix) | pIC50 (STK33; cell material: Jurkat cells) | pIC50 (STK33; cell material: Jurkat lysate) | pIC50 (STK33; cell material: Lysate mix) | pIC50 (UniProt Q00536; cell material: Jurkat cells) | pIC50 (UniProt Q00536; cell material: Jurkat lysate) | pIC50 (UniProt Q00536; cell material: Lysate mix) | pIC50 (BMPR2; cell material: Jurkat cells) | pIC50 (BMPR2; cell material: Jurkat lysate) | pIC50 (BMPR2; cell material: Lysate mix) | pIC50 (BMX) | pIC50 (UniProt P35916) | pIC50 (CLK1; cell material: Jurkat cells) | pIC50 (CLK1; cell material: Jurkat lysate) | pIC50 (CLK1; cell material: Lysate mix) | pIC50 (NLK; cell material: Jurkat lysate) | pIC50 (NLK; cell material: Lysate mix) | pIC50 (NLK; cell material: Jurkat cells) |
| --- | --- | --- | --- | --- | --- | --- | --- | --- | --- | --- | --- | --- | --- | --- | --- | --- | --- | --- | --- | --- | --- | --- | --- | --- | --- | --- | --- | --- | --- |
| C#CCNC(=O)c1cc(Nc2cc(C3CC3)[nH]n2)nc(N2CCN(Cc3ccc(S(=O)(=O)F)cc3)CC2)n1 | 5.87 | 4.65 | 5.39 | 5.88 | 5.7 | 5.88 | 6.26 | 6.86 | 7.04 | < 4.52 | < 4.52 | < 4.52 | 6.2 | 5.12 | 5.82 | 6.35 | 5.01 | 5.89 | 5.72 | < 4.52 | < 4.52 | < 4.52 | < 4.52 | 6.11 | 5.38 | 5.66 | < 4.52 | < 4.52 | – |
| C#CCNC(=O)c1cc(Nc2cc(C)[nH]n2)nc(N2CCN(Cc3ccc(S(=O)(=O)F)cc3)CC2)n1 | – | – | 4.64 | – | – | < 4.52 | – | – | 5.98 | < 4.52 | – | < 4.52 | – | – | < 4.52 | – | – | < 4.52 | – | – | < 4.52 | < 4.52 | < 4.52 | – | – | < 4.52 | – | < 4.52 | – |
| Cc1cc(Nc2cc(C(=O)NCCNC(=O)OC3CC/C=C/CCC3)nc(N3CCN(Cc4ccc(S(=O)(=O)F)cc4)CC3)n2)n[nH]1 (centres undefined) | – | – | < 4.52 | – | – | < 4.52 | – | – | 5.96 | < 4.52 | – | < 4.52 | – | – | < 4.52 | – | – | < 4.52 | – | – | < 4.52 | < 4.52 | < 4.52 | – | – | < 4.52 | – | < 4.52 | – |
| O=C(NCCNC(=O)c1cc(Nc2cc(C3CC3)[nH]n2)nc(N2CCN(Cc3ccc(S(=O)(=O)F)cc3)CC2)n1)OC1CC/C=C/CCC1 (centres undefined) | 5 | < 4.52 | < 4.52 | 6.18 | 5.1 | 5 | 6.77 | 6.72 | 6.42 | < 4.52 | < 4.52 | < 4.52 | 5.76 | < 4.52 | < 4.52 | 5.85 | < 4.52 | < 4.52 | < 4.52 | < 4.52 | < 4.52 | < 4.52 | < 4.52 | – | < 4.52 | < 4.52 | < 4.52 | < 4.52 | < 4.52 |
| CCNC(=O)c1cc(Nc2cc(C)[nH]n2)nc(N2CCN(Cc3ccc(S(=O)(=O)F)cc3)CC2)n1 | – | – | 4.81 | – | – | < 4.52 | – | – | 5.97 | < 4.52 | – | < 4.52 | – | – | < 4.52 | – | – | 4.76 | – | – | < 4.52 | < 4.52 | < 4.52 | – | – | < 4.52 | – | < 4.52 | – |
| CCNC(=O)c1cc(Nc2cc(C3CC3)[nH]n2)nc(N2CCN(Cc3ccc(S(=O)(=O)F)cc3)CC2)n1 | – | – | 5.35 | – | – | 5.6 | – | – | 6.68 | < 4.52 | – | < 4.52 | – | – | 5.67 | – | – | 5.76 | – | – | < 4.52 | < 4.52 | < 4.52 | – | – | 5.44 | – | < 4.52 | – |
